As usually defined, the Ki is the equilibrium dissociation constant of an inhibitor or competing ligand from its target. Low values mean a stronger hold on the target, high ones a looser hold on the target.

Experiment [1] has as its target GST-Bcl-XL (Homo sapiens, UniProt Q07817). As to the kind of experiment: TR-FRET binding assay, GST-Bcl-XL with F-Bak peptide probe. The settings on record: TR-FRET Binding Affinity. A digest of the protocol:
(§1)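 Compounds were serially diluted in DMSO from a 50 μM starting solution (2× the starting concentration; 10% DMSO). Plates were incubated for 3 h at room temperature, and TR-FRET was read with 340/35 nm excitation and emission at 520/525 nm (F-Bak) and 495/510 nm (Tb antibody). Ki values were calculated using Wang's competitive-binding equation.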
(In general: Time-resolved FRET reads energy transfer from a long-lived donor to a nearby acceptor.)

The target in experiment [2] is GST-Bcl-2 (Homo sapiens, UniProt P10415). As to the kind of experiment: TR-FRET binding assay, GST-Bcl-2 with F-Bak peptide probe. The settings on record: for Ki: TR-FRET Binding Affinity; for Binding selectivity ratio (Bcl-XL Ki/Bcl-2 Ki): TR-FRET, Bcl-XL Ki divided by Bcl-2 Ki. In a few lines:
as §1

Chain of GST-Bcl-XL (Q07817 whole entry): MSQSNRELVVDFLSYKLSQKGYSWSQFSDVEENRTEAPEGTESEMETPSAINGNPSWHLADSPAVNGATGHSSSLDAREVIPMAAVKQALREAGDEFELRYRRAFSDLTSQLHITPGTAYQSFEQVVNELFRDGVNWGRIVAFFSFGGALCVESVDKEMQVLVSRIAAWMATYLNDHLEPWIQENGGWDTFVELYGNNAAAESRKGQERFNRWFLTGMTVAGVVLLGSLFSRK
Chain of GST-Bcl-2 (P10415 whole entry): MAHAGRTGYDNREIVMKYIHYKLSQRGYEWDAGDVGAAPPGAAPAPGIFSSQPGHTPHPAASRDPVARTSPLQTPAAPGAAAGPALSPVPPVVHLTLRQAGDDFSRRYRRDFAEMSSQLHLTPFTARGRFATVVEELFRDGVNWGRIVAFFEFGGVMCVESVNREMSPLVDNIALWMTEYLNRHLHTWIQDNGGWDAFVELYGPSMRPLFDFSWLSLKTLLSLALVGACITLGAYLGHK

Turning to `CC1(C)CC(c2ccc(Cl)cc2)=C(CN2CCN(c3ccc(C(=O)NS(=O)(=O)c4ccc(OCC5(F)CCOCC5)c(Cl)c4)c(Oc4cccc5[nH]ncc45)c3)CC2)CO1` [Example 496, N-({3-chloro-4-[(4-fluorotetrahydro-2H-pyran-4-yl)methoxy]phenyl}sulfonyl)-4-(4-{[4-(4-chlorophenyl)-6,6-dimethyl-5,6-dihydro-2H-pyran-3-yl]methyl}piperazin-1-yl)-2-(1H-indazol-4-yloxy)benzamide], the inhibition constant Ki came out at 43.3 nM in experiment [1] and 0.078 nM in experiment [2]. Further, the “Binding selectivity ratio (Bcl-XL Ki/Bcl-2 Ki)” value (from here on “Binding selectivity ratio”) in experiment [2] came to 558.9.

`CC1(C)CCC(CN2CCN(c3ccc(C(=O)NS(=O)(=O)c4ccc(OCC5(F)CCOCC5)c(C(F)(F)F)c4)c(Oc4cccc5[nH]ncc45)c3)CC2)=C(c2ccc(Cl)cc2)C1` [Example 497, 4-(4-{[2-(4-chlorophenyl)-4,4-dimethylcyclohex-1-en-1-yl]methyl}piperazin-1-yl)-N-({4-[(4-fluorotetrahydro-2H-pyran-4-yl)methoxy]-3-(trifluoromethyl)phenyl}sulfonyl)-2-(1H-indazol-4-yloxy)benzamide]: the Ki in experiment [1] came to 124 nM; in experiment [2] it was 0.082 nM. In addition, in experiment [2], the “Binding selectivity ratio” value was found to be 1517.4.

Molecule `CC1(C)CCC(CN2CCN(c3ccc(C(=O)NS(=O)(=O)c4ccc(OCC5CCOCC5)c(Cl)c4)c(Oc4cccc5[nH]ncc45)c3)CC2)=C(c2ccc(Cl)cc2)C1` [Example 498, 4-(4-{[2-(4-chlorophenyl)-4,4-dimethylcyclohex-1-en-1-yl]methyl}piperazin-1-yl)-N-{[3-chloro-4-(tetrahydro-2H-pyran-4-ylmethoxy)phenyl]sulfonyl}-2-(1H-indazol-4-yloxy)benzamide] registered a Ki in experiment [1] of 125 nM. In experiment [2], the inhibition constant Ki was below 0.01 nM and the “Binding selectivity ratio” value was above 12491.0.

Regarding `CC1(C)CCC(CN2CCN(c3ccc(C(=O)NS(=O)(=O)c4ccc(OCC5(F)CCOCC5)c(Cl)c4)c(Oc4cccc5[nH]cnc45)c3)CC2)=C(c2ccc(Cl)cc2)C1` [Example 499, 2-(1H-benzimidazol-4-yloxy)-N-({3-chloro-4-[(4-fluorotetrahydro-2H-pyran-4-yl)methoxy]phenyl}sulfonyl)-4-(4-{[2-(4-chlorophenyl)-4,4-dimethylcyclohex-1-en-1-yl]methyl}piperazin-1-yl)benzamide], the Ki in experiment [1] is 104 nM; in experiment [2], below 0.01 nM. Besides, the “Binding selectivity ratio” value in experiment [2] is above 10415.0.

On to `CC1(C)CCC(CN2CCN(c3ccc(C(=O)NS(=O)(=O)c4cnc(OCC5CCOCC5)c(Cl)c4)c(Oc4cccc5[nH]cnc45)c3)CC2)=C(c2ccc(Cl)cc2)C1` [Example 500, 2-(1H-benzimidazol-4-yloxy)-4-(4-{[2-(4-chlorophenyl)-4,4-dimethylcyclohex-1-en-1-yl]methyl}piperazin-1-yl)-N-{[5-chloro-6-(tetrahydro-2H-pyran-4-ylmethoxy)pyridin-3-yl]sulfonyl}benzamide], for which the Ki in experiment [1] was found to be 147 nM. For the same molecule, in experiment [2], the Ki was below 0.01 nM and the “Binding selectivity ratio” value is listed as above 14734.0.

Turning to `CC1(C)CCC(CN2CCN(c3ccc(C(=O)NS(=O)(=O)c4ccc(OCC5(F)CCOCC5)c(C#N)c4)c(Oc4cccc5[nH]ncc45)c3)CC2)=C(c2ccc(Cl)cc2)C1` [Example 501, 4-(4-{[2-(4-chlorophenyl)-4,4-dimethylcyclohex-1-en-1-yl]methyl}piperazin-1-yl)-N-({3-cyano-4-[(4-fluorotetrahydro-2H-pyran-4-yl)methoxy]phenyl}sulfonyl)-2-(1H-indazol-4-yloxy)benzamide], the Ki in experiment [1] came to 163 nM; in experiment [2], 0.027 nM. In experiment [2], the “Binding selectivity ratio” value is on record as 6025.7.

Take `CC1(C)CCC(CN2CCN(c3ccc(C(=O)NS(=O)(=O)c4ccc(OCC5COCCO5)c(Cl)c4)c(Oc4cccc5[nH]ncc45)c3)CC2)=C(c2ccc(Cl)cc2)C1` (stereo not drawn) [Example 502, N-{[3-chloro-4-(1,4-dioxan-2-ylmethoxy)phenyl]sulfonyl}-4-(4-{[2-(4-chlorophenyl)-4,4-dimethylcyclohex-1-en-1-yl]methyl}piperazin-1-yl)-2-(1H-indazol-4-yloxy)benzamide]: in experiment [1], the Ki was determined as 145 nM. In addition, in experiment [2], the Ki turned out to be 0.025 nM and the “Binding selectivity ratio” value was determined as 5754.1.

In turn, `CC1(C)CCC(CN2CCN(c3ccc(C(=O)NS(=O)(=O)c4cnc(OC[C@@H]5CN(C6CC6)CCO5)c(Cl)c4)c(Oc4cccc5[nH]cnc45)c3)CC2)=C(c2ccc(Cl)cc2)C1` [Example 503, 2-(1H-benzimidazol-4-yloxy)-N-[(5-chloro-6-{[(2S)-4-cyclopropylmorpholin-2-yl]methoxy}pyridin-3-yl)sulfonyl]-4-(4-{[2-(4-chlorophenyl)-4,4-dimethylcyclohex-1-en-1-yl]methyl}piperazin-1-yl)benzamide] gave a Ki in experiment [1] of 147 nM. Besides, in experiment [2], the Ki was 0.062 nM and the “Binding selectivity ratio” value was found to be 2356.5.

In experiment [1], `CC1(C)CCC(CN2CCN(c3ccc(C(=O)NS(=O)(=O)c4cnc(OC[C@@H]5CN(C6CC6)CCO5)c(Cl)c4)c(Oc4cccc5[nH]ncc45)c3)CC2)=C(c2ccc(Cl)cc2)C1` [Example 504, N-[(5-chloro-6-{[(2S)-4-cyclopropylmorpholin-2-yl]methoxy}pyridin-3-yl)sulfonyl]-4-(4-{[2-(4-chlorophenyl)-4,4-dimethylcyclohex-1-en-1-yl]methyl}piperazin-1-yl)-2-(1H-indazol-4-yloxy)benzamide] displayed a Ki of 5.5 nM. Besides, in experiment [2], the Ki is below 0.01 nM and the “Binding selectivity ratio” value is above 549.9.

`COC(=O)N1CCOC(CNc2ccc(S(=O)(=O)NC(=O)c3ccc(N4CCN(CC5=C(c6ccc(Cl)cc6)CC(C)(C)CC5)CC4)cc3Oc3cccc4[nH]ncc34)cc2[N+](=O)[O-])C1` (stereo not drawn) [Example 505, methyl 2-{[(4-{[4-(4-{[2-(4-chlorophenyl)-4,4-dimethylcyclohex-1-en-1-yl]methyl}piperazin-1-yl)-2-(1H-indazol-4-yloxy)benzoyl]sulfamoyl}-2-nitrophenyl)amino]methyl}morpholine-4-carboxylate]: the Ki in experiment [1] is 4.86 nM; in experiment [2], below 0.01 nM. In addition, the “Binding selectivity ratio” value in experiment [2] is recorded as above 486.1.

For the molecule `CCN(C)C(=O)N1CCOC(CNc2ccc(S(=O)(=O)NC(=O)c3ccc(N4CCN(CC5=C(c6ccc(Cl)cc6)CC(C)(C)CC5)CC4)cc3Oc3cccc4[nH]ncc34)cc2[N+](=O)[O-])C1` (stereo not drawn) [Example 506, 2-{[(4-{[4-(4-{[2-(4-chlorophenyl)-4,4-dimethylcyclohex-1-en-1-yl]methyl}piperazin-1-yl)-2-(1H-indazol-4-yloxy)benzoyl]sulfamoyl}-2-nitrophenyl)amino]methyl}-N-ethyl-N-methylmorpholine-4-carboxamide], the affinity in experiment [1], expressed as Ki, was 4.46 nM. For the same molecule, in experiment [2], the Ki is below 0.01 nM and the “Binding selectivity ratio” value is reported as above 445.7.

In the case of `CCN(C)C(=O)N1CCOC(CNc2ccc(S(=O)(=O)NC(=O)c3ccc(N4CCN(CC5=C(c6ccc(Cl)cc6)CC(C)(C)CC5)CC4)cc3Oc3cccc4[nH]cnc34)cc2[N+](=O)[O-])C1` (stereo not drawn) [Example 507, 2-{[(4-{[2-(1H-benzimidazol-4-yloxy)-4-(4-{[2-(4-chlorophenyl)-4,4-dimethylcyclohex-1-en-1-yl]methyl}piperazin-1-yl)benzoyl]sulfamoyl}-2-nitrophenyl)amino]methyl}-N-ethyl-N-methylmorpholine-4-carboxamide], in experiment [1], affinity was put at a Ki of 33.3 nM. Besides, in experiment [2], the Ki is below 0.01 nM and the “Binding selectivity ratio” value is on record as above 3334.7.

`CC[C@]1(O)CC[C@H](COc2ncc(S(=O)(=O)NC(=O)c3ccc(N4CCN(CC5=C(c6ccc(Cl)cc6)CC(C)(C)CC5)CC4)cc3Oc3cccc4[nH]ncc34)cc2Cl)CC1` [Example 508, N-({5-chloro-6-[(trans-4-ethyl-4-hydroxycyclohexyl)methoxy]pyridin-3-yl}sulfonyl)-4-(4-{[2-(4-chlorophenyl)-4,4-dimethylcyclohex-1-en-1-yl]methyl}piperazin-1-yl)-2-(1H-indazol-4-yloxy)benzamide]: affinity in experiment [1] was put at a Ki of 43.2 nM. In addition, in experiment [2], the inhibitory constant (Ki) is below 0.01 nM and the “Binding selectivity ratio” value was above 4315.2.

On to `CC[C@]1(O)CC[C@@H](COc2ncc(S(=O)(=O)NC(=O)c3ccc(N4CCN(CC5=C(c6ccc(Cl)cc6)CC(C)(C)CC5)CC4)cc3Oc3cccc4[nH]ncc34)cc2Cl)CC1` [Example 509, N-({5-chloro-6-[(cis-4-ethyl-4-hydroxycyclohexyl)methoxy]pyridin-3-yl}sulfonyl)-4-(4-{[2-(4-chlorophenyl)-4,4-dimethylcyclohex-1-en-1-yl]methyl}piperazin-1-yl)-2-(1H-indazol-4-yloxy)benzamide], for which the Ki in experiment [1] was 229 nM; in experiment [2], 6.3 nM. Besides, the “Binding selectivity ratio” value in experiment [2] is given as 36.4.

Take `CC1(C)CCC(CN2CCN(c3cc(Oc4cccc5[nH]ncc45)c(C(=O)NS(=O)(=O)c4cnc(OCC5(F)CCOCC5)c(Cl)c4)cc3Cl)CC2)=C(c2ccc(Cl)cc2)C1` [Example 510, 5-chloro-N-({5-chloro-6-[(4-fluorotetrahydro-2H-pyran-4-yl)methoxy]pyridin-3-yl}sulfonyl)-4-(4-{[2-(4-chlorophenyl)-4,4-dimethylcyclohex-1-en-1-yl]methyl}piperazin-1-yl)-2-(1H-indazol-4-yloxy)benzamide]: the Ki in experiment [1] amounted to 174 nM. Besides, in experiment [2], the Ki came out at 0.674 nM and the “Binding selectivity ratio” value came out at 257.8.

For the origin of these results see patent US9073855B2, “BCL-2 selective apoptosis-inducing agents for the treatment of cancer and immune diseases” (AbbVie Inc., priority 2008, dated 2015).
